From patent publication US20240285784A1, “PEPTIDIC CONJUGATES OF SN38 USEFUL IN THE TREATMENT OF CANCER” (FUNDACIÓ INSTITUT DE RECERCA BIOMÈDICA (IRB BARCELONA), priority 2020, published 2024)
Like-named read-outs stand apart in the source and are kept apart here. *1 amine or outer side, *2 acyl side, *3 side chain or, on linkers, in order; H or OH if unused. Where a SMILES comes first, the peptide text is derived from it. [ ]: non-standard residue; d: D form. The star is where a group is joined. ξ: configuration not given here. X3 = CCc1c2c(nc3ccc(O)cc13)-c1cc3c(c(=O)n1C2)COC(=O)[C@@]3(CC)OC(=O)CCCCn1cc(CCCC(=O)NCCCOCCOCCOCCSCN*)nn1; X2 = CCc1c2c(nc3ccc(O)cc13)-c1cc3c(c(=O)n1C2)COC(=O)[C@@]3(CC)OC(=O)CCC(=O)*; X4 = CC(O)CC(N[*:1])C(=O)[*:2]; Suc = O=C(CCC(=O)[*:2])[*:1]; ξE = NC(CCC(=O)O)C(=O)O; ξN = NC(=O)CC(N)C(=O)O; ξK = NCCCCC(N)C(=O)O; ξT = CC(O)C(N)C(=O)O; ξDap = NCC(N)C(=O)O; ξP = O=C(O)C1CCCN1; ξA = CC(N)C(=O)O

How the values were obtained:
[1] = system: diffuse intrinsic pontine glioma HSJD-DIPG-007; experiment: cells; conditions: HSJD-DIPG-007, MTS, 72 h incubation
From the text: Cancer cell lines were obtained from the repository maintained at Hospital Sant Joan de Deu (Barcelona, Spain). Cancer cell lines used in these experiment included cancer types of adult glioma (U373 and U87 cell lines), pediatric gliomas including diffuse intrinsic pontine glioma (HSJD-DIPG-007, HSJD-DIPG-011), and pediatric high-grade glioma (HSJD-GBM-001), retinoblastoma (HSJD-RBT-5, HSJD-RBT-7 and HSJD-RBT-14), Ewing sarcoma (A673), rhabdomyosarcoma (Rd and RH4) and neuroblastoma (LAN-1 and SK-N-JD cell lines and HSJD-NB-004, HSJD-NB-005 and HSJD-NB-016 patient-derived cell models). […] To add the drugs to the cells in culture, SN38-linker A-MiniAp4 (Ia) and irinotecan were prepared in culture medium from stock solutions at concentration 1 mg/mL in water. SN38 was prepared in culture medium from a stock solution at concentration 1 mg/mL in DMSO. […] Activity curves were built for adult glioma cell lines U87 (FIG. 1) and U373 (FIG. 2), pediatric gliomas including DIPG models HSJD-DIPG-007 (FIG. 3) and HSJD-DIPG-011 (FIG. 4), and pediatric high-grade glioma model HSJD-GBM-001 (FIG. 5), retinoblastoma models HSJD-RBT-5 (FIG. 6), HSJD-RBT-7 (FIG. 7) and HSJD-RBT-14 (FIG. 8), Ewing sarcoma cell line A673 (FIG. 9), rhabdomyosarcoma cell lines Rd (FIG. 10) and RH4 (FIG. 11), neuroblastoma cell lines LAN-1 (FIG. 12) and SK-N-JD (FIG. 13) and neuroblastoma patient-derived cell models HSJD-NB-004 (FIG. 14), HSJD-NB-005 (FIG. 15) and HSJD-NB-016 (FIG. 16). The established IC50 values are in Table 3.
Cancer cell lines used in these experiments were pediatric gliomas including diffuse intrinsic pontine glioma HSJD-DIPG-007, and pediatric high-grade glioma HSJD-GBM-001. […] To add the drugs to the cells in culture, SN38-Linker A-MiniAp4 (Ia) and SN38-Linker B-THRre were prepared in culture medium from stock solutions at concentration 1 mg/mL in water. SN38 was prepared in culture medium from a stock solution at concentration 1 mg/mL in DMSO. […] Activity curves were built for cells HSJD-DIPG-007 (FIG. 20) and HSJD-GBM-001 (FIG. 21).
Cancer cell lines used in these experiments were pediatric gliomas including diffuse intrinsic pontine glioma HSJD-DIPG-007, and pediatric high-grade glioma HSJD-GBM-001. […] All compounds were prepared in culture medium from stock solutions at concentration 1 mg/mL in water. […] Activity curves were built for cells HSJD-DIPG-007 (FIG. 22) and HSJD-GBM-001 (FIG. 23).
Cancer cell line used in these experiment was HSJD-DIPG-007.

[2] = system: pediatric high-grade glioma HSJD-GBM-001; experiment: cells; format: cell-based; conditions: MTS, 72 h incubation, Example 11, Table 4, read-out: IC50 values of compounds
From the text: Cancer cell lines were obtained from the repository maintained at Hospital Sant Joan de Deu (Barcelona, Spain). Cancer cell lines used in these experiment included cancer types of adult glioma (U373 and U87 cell lines), pediatric gliomas including diffuse intrinsic pontine glioma (HSJD-DIPG-007, HSJD-DIPG-011), and pediatric high-grade glioma (HSJD-GBM-001), retinoblastoma (HSJD-RBT-5, HSJD-RBT-7 and HSJD-RBT-14), Ewing sarcoma (A673), rhabdomyosarcoma (Rd and RH4) and neuroblastoma (LAN-1 and SK-N-JD cell lines and HSJD-NB-004, HSJD-NB-005 and HSJD-NB-016 patient-derived cell models). Briefly, between 3000 and 30,000 cancer cells were cultured in 96 well plates and 24 h later the cells were exposed to compound SN38-linker A-MiniAp4 (Ia) (concentration range 1-0.00000001 μM), SN38 (concentration range 1-0.00000001 μM), or irinotecan (concentration range 100-0,000001 μM). To add the drugs to the cells in culture, SN38-linker A-MiniAp4 (Ia) and irinotecan were prepared in culture medium from stock solutions at concentration 1 mg/mL in water. SN38 was prepared in culture medium from a stock solution at concentration 1 mg/mL in DMSO. The tetrazolium compound [3-(4,5-dimethylthiazol-2-yl)-5-(3-carboxymethoxyphenyl)-2-(4-sulfophenyl)-2H-tetrazolium] (MTS assay; Promega, Fitchburg, WI) was used to determine cell viability after 72 h incubation with the drugs. The concentrations of drug required to cause a reduction of 50% in cell proliferation (IC50 and 95% confidence intervals) were calculated with Graphpad Prism 8 software (La Jolla, CA). Activity curves were built for adult glioma cell lines U87 (FIG. 1) and U373 (FIG. 2), pediatric gliomas including DIPG models HSJD-DIPG-007 (FIG. 3) and HSJD-DIPG-011 (FIG. 4), and pediatric high-grade glioma model HSJD-GBM-001 (FIG. 5), retinoblastoma models HSJD-RBT-5 (FIG. 6), HSJD-RBT-7 (FIG. 7) and HSJD-RBT-14 (FIG. 8), Ewing sarcoma cell line A673 (FIG. 9), rhabdomyosarcoma cell lines Rd (FIG. 10) and RH4 (FIG. 11), neuroblastoma cell lines LAN-1 (FIG. 12) and SK-N-JD (FIG. 13) and neuroblastoma patient-derived cell models HSJD-NB-004 (FIG. 14), HSJD-NB-005 (FIG. 15) and HSJD-NB-016 (FIG. 16). The established IC50 values are in Table 3.
The present inventors compared the activity of the new compound SN38 conjugated with MiniAp4 (SN38-linkerA-MiniAp4, example 7 also named G2B-001) and with SN38-linker B-THRre (comparative example 2). Original compound SN38 was used as reference. Cancer cell lines used in these experiments were pediatric gliomas including diffuse intrinsic pontine glioma HSJD-DIPG-007, and pediatric high-grade glioma HSJD-GBM-001. Briefly, 3000 cancer cells were cultured in 96 well plates and 24 h later the cells were exposed to compound compound (Ia) (concentration range 1-0.00000001 μM), SN38-Linker B-THRre (concentration range 1-0.00000001 μM), and SN38 (concentration range 1-0.00000001 μM). To add the drugs to the cells in culture, SN38-Linker A-MiniAp4 (Ia) and SN38-Linker B-THRre were prepared in culture medium from stock solutions at concentration 1 mg/mL in water. SN38 was prepared in culture medium from a stock solution at concentration 1 mg/mL in DMSO. The MTS assay was used to determine cell viability after 72 h incubation with the drugs. The concentrations of drug required to cause a reduction of 50% in cell proliferation (IC50 and 95% confidence intervals) were calculated with Graphpad Prism 8 software (La Jolla, CA). Activity curves were built for cells HSJD-DIPG-007 (FIG. 20) and HSJD-GBM-001 (FIG. 21). The established IC50 values are in Table 4.
Cancer cell lines used in these experiments were pediatric gliomas including diffuse intrinsic pontine glioma HSJD-DIPG-007, and pediatric high-grade glioma HSJD-GBM-001. Briefly, 3000 cancer cells were cultured in 96 well plates and 24 h later the cells were exposed to compounds (Ia), comparative example 1 and comparative example 2 (concentration range 1-0.001 μM for each of them). […]

[3] = Stability in human plasma at 37° C. in vitro; format: in vitro ADME
Protocol: To assess the stability of the SN38-linker A-MiniAp4 (Ia) (example 7) in human, mouse, dog and rat plasma at 37° C., the compound was prepared at 200 μM in plasma samples in triplicates at each timepoint (0 h, 1 h, 4 h, 8 h and 24 h) for each species. Once the incubation was finalised, plasma proteins were immediately precipitated by adding chilly methanol (ratio 4:1, methanol:plasma) and tubes were shacked for few seconds (vortex). Samples were centrifuged at 3,000 rpm for 30 minutes at 4° C., supernatants were collected, transferred to the injection plate and injected to LC-MS system.
Compound recovery was determined by comparing the analyte response in a biological sample that is spiked with the analyte and processed, with the response in a methanol sample that is spiked with the analyte and processed.
Plasma stability assay was performed using blank plasma from untreated volunteers/animals. K2-EDTA was used as anticoagulant. Human blank plasma used was obtained from Hospital Sant Pau, mouse blank plasma used was obtained from Janvier, dog blank plasma used was obtained from Isoquimen and rat blank plasma used were obtained from Draconis Pharma.
To assess the stability of the G2B-001 lineal (Ib) (example 16) in human plasma at 37° C., the compound was prepared at 200 µM in plasma samples in triplicates at each timepoint (0 h, 0.5 h, 1 h, 2 h, 4 h, 8 h and 24 h). Once the incubation was finalised, plasma proteins were immediately precipitated by adding chilly methanol (ratio 4:1, methanol:plasma) and tubes were shacked for few seconds (vortex). Samples were centrifuged at 3,000 rpm for 30 minutes at 4° C., supernatants were collected, transferred to the injection plate and injected to LC-MS system. Compound recovery was determined by comparing the analyte response in a biological sample that is spiked with the analyte and processed, with the response in a methanol sample that is spiked with the analyte and processed.
Plasma stability assay was performed using blank plasma from untreated volunteers. K2-EDTA was used as anticoagulant. Human blank plasma used was obtained from Hospital Sant Pau.

[4] = Evaluation of solubility in water; format: physicochemical; conditions: at 1 mg/mL
Protocol: 25 mg of SN38-linker A-MiniAp4 were dissolved in H2O, showing a completely transparent solution. This means that SN38-linker A-MiniAp4 has a solubility in water higher than 5 mg/mL, more than 400-fold the solubility in water described for SN38 (Mol. Pharmaceutics, 2016, 13, 379-390).

Compound	IC50 ([1]; read-out: IC50 values of compounds, Example 11, Table 4) [nM]	IC50 [2] [nM]	half-life at 200 μM [3] [h]	recovery at 24 h, 200 μM ([3]; 24 h, read-out: % Recovery after 24 h in human plasma) [%]	solubility in water [4]	IC50 ([1]; read-out: IC50 values, Example 25, Table 8) [nM]
CCc1c2c(nc3ccc(O)cc13)-c1cc3c(c(=O)n1C2)COC(=O)[C@@]3(CC)OC(=O)CCC(=O)N1CCC[C@@H]1C(=O)N[C@H](Cc1c[nH]c2ccccc12)C(=O)N[C@@H](C(=O)N1CCC[C@@H]1C(=O)N[C@H](CO)C(=O)N[C@H](Cc1c[nH]c2ccccc12)C(=O)N[C@H](CCSC)C(=O)N1CCC[C@@H]1C(=O)N1CCC[C@@H]1C(=O)N[C@H](CCCNC(=N)N)C(=O)N[C@H](Cc1c[nH]cn1)C(=O)N[C@@H](C(N)=O)[C@H](C)O)C(C)C [Comparative Example 2, reference compound] (X2-[dP][dW][dV][dP][dS][dW][dM][dP][dP][dR][dH][dT]-NH2; N-terminus and C-terminus assumed)	104	60.6	–	–	–	–
CCc1c2c(nc3ccc(O)cc13)-c1cc3c(c(=O)n1C2)COC(=O)[C@@]3(CC)OC(=O)CCCCn1cc(CCCC(=O)NCCCOCCOCCOCCSCNC(=O)CCC(=O)NC(CN)C(=O)NC(CCCCN)C(=O)NC(C)C(=O)N2CCCC2C(=O)NC(CCC(=O)O)C(=O)NC(C(=O)NC(C)C(=O)NC(CC(C)O)C(=O)NC(CC(N)=O)C(N)=O)C(C)O)nn1 (stereo partly drawn) [G2B-001 lineal (Ib)] ({X3-Suc}-[ξDap][ξK][ξA][ξP][ξE][ξT][ξA][X4][ξN]-NH2)	–	–	> 24	69.9	good solubility	36.8
